{
  "source": "patent US10344060B2",
  "about": "(priority 2013, dated 2019)",
  "molecular_target": "hNav1.7 (Homo sapiens, UniProt Q15858)",
  "sequence (Q15858 whole entry)": "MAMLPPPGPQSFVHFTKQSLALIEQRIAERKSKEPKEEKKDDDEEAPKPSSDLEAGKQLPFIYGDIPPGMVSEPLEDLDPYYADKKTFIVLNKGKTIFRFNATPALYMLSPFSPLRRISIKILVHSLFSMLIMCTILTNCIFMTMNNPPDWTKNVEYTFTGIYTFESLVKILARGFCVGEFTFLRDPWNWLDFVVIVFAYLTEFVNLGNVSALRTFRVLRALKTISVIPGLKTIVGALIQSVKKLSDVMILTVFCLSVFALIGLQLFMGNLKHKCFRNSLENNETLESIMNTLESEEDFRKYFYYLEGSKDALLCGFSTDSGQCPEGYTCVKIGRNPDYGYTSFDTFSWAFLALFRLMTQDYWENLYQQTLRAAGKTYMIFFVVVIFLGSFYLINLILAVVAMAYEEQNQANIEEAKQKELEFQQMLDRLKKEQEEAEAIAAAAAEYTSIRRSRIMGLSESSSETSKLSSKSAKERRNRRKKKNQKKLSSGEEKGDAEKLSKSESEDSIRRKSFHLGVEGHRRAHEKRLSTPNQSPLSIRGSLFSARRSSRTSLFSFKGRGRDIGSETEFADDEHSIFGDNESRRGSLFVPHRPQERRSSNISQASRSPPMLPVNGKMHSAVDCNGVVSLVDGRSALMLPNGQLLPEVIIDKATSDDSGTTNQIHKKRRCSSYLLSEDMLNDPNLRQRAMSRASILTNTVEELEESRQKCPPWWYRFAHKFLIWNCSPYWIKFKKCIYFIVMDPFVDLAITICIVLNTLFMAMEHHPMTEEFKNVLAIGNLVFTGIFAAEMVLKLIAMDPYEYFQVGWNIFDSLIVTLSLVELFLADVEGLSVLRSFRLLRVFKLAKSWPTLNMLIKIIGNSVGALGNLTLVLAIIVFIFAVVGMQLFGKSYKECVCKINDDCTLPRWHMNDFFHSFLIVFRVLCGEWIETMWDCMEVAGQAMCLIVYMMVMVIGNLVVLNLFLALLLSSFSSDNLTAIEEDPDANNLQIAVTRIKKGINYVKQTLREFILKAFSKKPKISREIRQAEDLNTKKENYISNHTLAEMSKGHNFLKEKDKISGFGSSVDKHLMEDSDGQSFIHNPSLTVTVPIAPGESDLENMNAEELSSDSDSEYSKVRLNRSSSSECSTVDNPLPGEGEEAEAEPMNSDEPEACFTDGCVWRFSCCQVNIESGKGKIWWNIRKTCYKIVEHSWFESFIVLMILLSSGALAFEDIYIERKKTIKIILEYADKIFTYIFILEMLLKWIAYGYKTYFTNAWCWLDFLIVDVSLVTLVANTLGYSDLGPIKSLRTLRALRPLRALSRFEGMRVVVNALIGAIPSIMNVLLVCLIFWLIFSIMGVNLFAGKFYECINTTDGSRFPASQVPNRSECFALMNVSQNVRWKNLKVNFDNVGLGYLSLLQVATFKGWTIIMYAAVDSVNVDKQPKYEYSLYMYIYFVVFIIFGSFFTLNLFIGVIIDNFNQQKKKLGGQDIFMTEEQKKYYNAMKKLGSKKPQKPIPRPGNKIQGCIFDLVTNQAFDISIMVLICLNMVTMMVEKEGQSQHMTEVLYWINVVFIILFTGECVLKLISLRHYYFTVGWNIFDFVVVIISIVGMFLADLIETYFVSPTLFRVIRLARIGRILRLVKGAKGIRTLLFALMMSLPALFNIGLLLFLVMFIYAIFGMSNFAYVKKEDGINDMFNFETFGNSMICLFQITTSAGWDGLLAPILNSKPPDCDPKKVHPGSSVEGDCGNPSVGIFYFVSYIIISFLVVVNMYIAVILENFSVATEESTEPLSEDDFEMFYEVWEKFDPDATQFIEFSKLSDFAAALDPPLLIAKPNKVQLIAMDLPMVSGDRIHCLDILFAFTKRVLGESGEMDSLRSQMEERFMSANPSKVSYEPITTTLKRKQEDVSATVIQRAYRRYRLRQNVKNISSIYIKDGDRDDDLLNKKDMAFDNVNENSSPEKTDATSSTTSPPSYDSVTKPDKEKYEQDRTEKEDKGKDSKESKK",
  "test": "cell-based",
  "format": "cell-based",
  "settings": "for IC50: Table 12, PatchXpress, tonic block, read-out: PX hNav1.7 Tonic IC50; for Nav1.4/Nav1.7 / Nav1.5/Nav1.7: ratio of PX tonic IC50 values, Table 11",
  "data": [
    {"smiles": "C#CC[C@@H]1NC(=O)[C@@H]2CSSC[C@H](NC(=O)[C@H](CCC(=O)O)NC(=O)[C@H](CCC)NC(=O)[C@@H](N)CCC(=O)O)C(=O)N[C@@H](CCC(N)=O)C(=O)N[C@@H](CCCCN)C(=O)N[C@@H](Cc3c[nH]c4ccccc34)C(=O)N[C@@H](CCCC)C(=O)N[C@@H](Cc3c[nH]c4ccccc34)C(=O)N[C@@H]([C@@H](C)O)C(=O)N[C@H]3CSSC[C@H](NC(=O)[C@H](CCCNC(=N)N)NC(=O)[C@H](CC(C)C)NC(=O)CNC1=O)C(=O)N[C@@H](CCCCN)C(=O)N[C@@H](CC(C)C)C(=O)N[C@@H](Cc1c[nH]c4ccccc14)C(=O)N[C@H](C(=O)N[C@@H](CCCNC(=N)N)C(=O)N[C@@H](CCCCN)C(=O)N[C@@H](CCC(=O)O)C(=O)N[C@H](C(N)=O)[C@@H](C)CC)CSSC[C@H](NC(=O)[C@H](C)NC(=O)[C@H](CCCNC(=N)N)NC(=O)[C@H](CCCCN)NC(=O)[C@H](CCC(=O)O)NC(=O)[C@H](CC(=O)O)NC3=O)C(=O)N2", "note": "[compound 772]", "values": [
      {"measurement": "IC50", "result": 15.2, "unit": "nM"}
    ]},
    {"smiles": "CCCC[C@@H]1NC(=O)[C@H](Cc2c[nH]c3ccccc23)NC(=O)[C@H](CCCCN)NC(=O)[C@H](CCC(N)=O)NC(=O)[C@@H](NC(=O)[C@H](Cc2ccc(O)cc2)NC(=O)CCN)CSSC[C@@H]2NC(=O)[C@@H]3CSSC[C@@H](C(=O)N[C@@H](CCCNC(=N)N)C(=O)N[C@@H](CCCCN)C(=O)N[C@H](C(=O)N[C@H](C(N)=O)[C@@H](C)CC)[C@@H](C)CC)NC(=O)[C@H](Cc4c[nH]c5ccccc45)NC(=O)[C@H](CC(C)C)NC(=O)[C@H](CCCCN)NC(=O)[C@H](CSSC[C@H](NC(=O)[C@H]([C@@H](C)O)NC(=O)[C@H](Cc4c[nH]c5ccccc45)NC1=O)C(=O)N[C@@H](CC(=O)O)C(=O)N[C@@H](CO)C(=O)N[C@@H](CCCCN)C(=O)N[C@@H](CCCNC(=N)N)C(=O)N[C@@H](C)C(=O)N3)NC(=O)[C@H](CCCNC(=N)N)NC(=O)[C@H](CC(C)C)NC(=O)CNC(=O)[C@H](CCC(=O)O)NC2=O", "note": "[compound 376]", "values": [
      {"measurement": "Nav1.4/Nav1.7", "result": 3},
      {"measurement": "Nav1.5/Nav1.7", "result": 731}
    ]},
    {"smiles": "C#CC[C@H](N)C(=O)N[C@@H](Cc1ccc(O)cc1)C(=O)N[C@H]1CSSC[C@@H]2NC(=O)[C@@H]3CSSC[C@@H](C(=O)N[C@@H](CCCNC(=N)N)C(=O)N[C@@H](CCCCN)C(=O)N[C@@H](CCC(=O)O)C(=O)N[C@H](C(N)=O)[C@@H](C)CC)NC(=O)[C@H](Cc4c[nH]c5ccccc45)NC(=O)[C@H](CC(C)C)NC(=O)[C@H](CCCCN)NC(=O)[C@H](CSSC[C@H](NC(=O)[C@H]([C@@H](C)O)NC(=O)[C@H](Cc4c[nH]c5ccccc45)NC(=O)[C@H](CCCC)NC(=O)[C@H](Cc4c[nH]c5ccccc45)NC(=O)[C@H](CCC(N)=O)NC(=O)[C@H](CCC(N)=O)NC1=O)C(=O)N[C@@H](CC(=O)O)C(=O)N[C@@H](CO)C(=O)N[C@@H](CCCCN)C(=O)N[C@@H](CCCNC(N)=O)C(=O)N[C@@H](C)C(=O)N3)NC(=O)[C@H](CCCNC(=N)N)NC(=O)[C@H](CC(C)C)NC(=O)CNC(=O)[C@H](CCC(=O)O)NC2=O", "note": "[compound 807]", "values": [
      {"measurement": "IC50", "result": 20.9, "unit": "nM"}
    ]},
    {"smiles": "C#CC[C@H](N)C(=O)N[C@@H](Cc1ccc(O)cc1)C(=O)N[C@H]1CSSC[C@@H]2NC(=O)[C@@H]3CSSC[C@@H](C(=O)N[C@@H](CCCNC(=N)N)C(=O)N[C@@H](CCC(=O)O)C(=O)N[C@@H](CCC(=O)O)C(=O)N[C@H](C(N)=O)[C@@H](C)CC)NC(=O)[C@H](Cc4c[nH]c5ccccc45)NC(=O)[C@H](CC(C)C)NC(=O)[C@H](CCCCN)NC(=O)[C@H](CSSC[C@H](NC(=O)[C@H]([C@@H](C)O)NC(=O)[C@H](Cc4c[nH]c5ccccc45)NC(=O)[C@H](CCCC)NC(=O)[C@H](Cc4c[nH]c5ccccc45)NC(=O)[C@H](CCCCN)NC(=O)[C@H](CCC(N)=O)NC1=O)C(=O)N[C@@H](CC(=O)O)C(=O)N[C@@H](CO)C(=O)N[C@@H](CCCCN)C(=O)N[C@@H](CCCNC(=N)N)C(=O)N[C@@H](C)C(=O)N3)NC(=O)[C@H](CCCNC(=N)N)NC(=O)[C@H](CC(C)C)NC(=O)CNC(=O)[C@H](CCC(=O)O)NC2=O", "note": "[compound 725]", "values": [
      {"measurement": "IC50", "result": "> 10000", "unit": "nM"}
    ]},
    {"smiles": "CCCC[C@@H]1NC(=O)[C@H](Cc2c[nH]c3ccccc23)NC(=O)[C@H](CCCCN)NC(=O)[C@H](CCC(N)=O)NC(=O)[C@@H](NC(=O)[C@H](Cc2ccc(O)cc2)NC(=O)[C@@H](C)N)CSSC[C@@H]2NC(=O)[C@@H]3CSSC[C@@H](C(=O)N[C@@H](CCCNC(=N)N)C(=O)N[C@@H](CCCCN)C(=O)N[C@H](C(=O)N[C@H](C(N)=O)[C@@H](C)CC)[C@@H](C)CC)NC(=O)[C@H](Cc4c[nH]c5ccccc45)NC(=O)[C@H](CC(C)C)NC(=O)[C@H](CCCCN)NC(=O)[C@H](CSSC[C@H](NC(=O)[C@H]([C@@H](C)O)NC(=O)[C@H](Cc4c[nH]c5ccccc45)NC1=O)C(=O)N[C@@H](CC(=O)O)C(=O)N[C@@H](CO)C(=O)N[C@@H](CCCCN)C(=O)N[C@@H](CCCNC(=N)N)C(=O)N[C@@H](C)C(=O)N3)NC(=O)[C@H](CCCNC(=N)N)NC(=O)[C@H](CC(C)C)NC(=O)CNC(=O)[C@H](CCC(=O)O)NC2=O", "note": "[compound 372]", "values": [
      {"measurement": "Nav1.4/Nav1.7", "result": 5},
      {"measurement": "Nav1.5/Nav1.7", "result": 764}
    ]},
    {"smiles": "CCCC[C@@H]1NC(=O)[C@H](Cc2c[nH]c3ccccc23)NC(=O)[C@H](CCCCN)NC(=O)[C@H](CCC(N)=O)NC(=O)[C@@H](NC(=O)[C@H](Cc2ccc(O)cc2)NC(=O)[C@@H](N)CC#N)CSSC[C@@H]2NC(=O)[C@@H]3CSSC[C@@H](C(=O)N[C@@H](CCCNC(=N)N)C(=O)N[C@@H](CCCCN)C(=O)N[C@@H](CCC(=O)O)C(=O)N[C@H](C(N)=O)[C@@H](C)CC)NC(=O)[C@H](Cc4c[nH]c5ccccc45)NC(=O)[C@H](CC(C)C)NC(=O)[C@H](CCCCN)NC(=O)[C@H](CSSC[C@H](NC(=O)[C@H]([C@@H](C)O)NC(=O)[C@H](Cc4c[nH]c5ccccc45)NC1=O)C(=O)N[C@@H](CC(=O)O)C(=O)N[C@@H](CO)C(=O)N[C@@H](CCCCNC(=O)CCOCCOCCOCCOCCOCCOCCOCCOCCOCCOCCOCCOCCN)C(=O)N[C@@H](CCCNC(=N)N)C(=O)N[C@@H](C)C(=O)N3)NC(=O)[C@H](CCCNC(=N)N)NC(=O)[C@H](CC(C)C)NC(=O)CNC(=O)[C@H](CCC(=O)O)NC2=O", "note": "[compound 566]", "values": [
      {"measurement": "Nav1.4/Nav1.7", "result": 103}
    ]},
    {"smiles": "C#CC[C@H](N)C(=O)N[C@@H](Cc1ccc(O)cc1)C(=O)N[C@H]1CSSC[C@@H]2NC(=O)[C@@H]3CSSC[C@@H](C(=O)N[C@@H](CCCNC(=N)N)C(=O)N[C@@H](CCCCN)C(=O)N[C@@H](CCC(=O)O)C(=O)N[C@H](C(N)=O)[C@@H](C)CC)NC(=O)[C@H](Cc4c[nH]c5ccccc45)NC(=O)[C@H](CC(C)C)NC(=O)[C@H](CCCCN)NC(=O)[C@H](CSSC[C@H](NC(=O)[C@H]([C@@H](C)O)NC(=O)[C@H](Cc4c[nH]c5ccccc45)NC(=O)[C@H](CCCC)NC(=O)[C@H](Cc4c[nH]c5ccccc45)NC(=O)[C@H](CCCCN)NC(=O)[C@H](CCC(N)=O)NC1=O)C(=O)N[C@@H](CC(=O)O)C(=O)N[C@@H](CO)C(=O)N[C@@H](CCCCN)C(=O)N[C@@H](CCCNC(=N)N)C(=O)N[C@@H](C)C(=O)N3)NC(=O)[C@H](CCCNC(=N)N)NC(=O)[C@H](CCCCN)NC(=O)CNC(=O)[C@H](CCC(=O)O)NC2=O", "note": "[compound 704]", "values": [
      {"measurement": "IC50", "result": "> 1000", "unit": "nM"}
    ]},
    {"smiles": "CCCC[C@@H]1NC(=O)[C@H](CO)NC(=O)[C@H](CC(=O)O)NC(=O)[C@@H]2CSSC[C@@H]3NC(=O)[C@H](CCCNC(=N)N)NC(=O)[C@H](CC(C)C)NC(=O)CNC(=O)[C@H](CCCCNC(=O)CCOCCOCCOCCOCCOCCOCCOCCOCCOCCOCCOCCOCCN)NC(=O)[C@H](CSSC[C@H](NC(=O)[C@H](Cc4ccc(O)cc4)NC(=O)[C@@H](N)CC#N)C(=O)N[C@@H](CCC(N)=O)C(=O)N[C@@H](CCCCN)C(=O)N[C@@H](Cc4c[nH]c5ccccc45)C(=O)N[C@@H](CCCC)C(=O)N[C@@H](Cc4c[nH]c5ccccc45)C(=O)N[C@@H]([C@@H](C)O)C(=O)N2)NC(=O)[C@H](CSSC[C@@H](C(=O)N[C@@H](CCCNC(=N)N)C(=O)N[C@@H](CCCCN)C(=O)N[C@@H](CCC(=O)O)C(=O)N[C@H](C(N)=O)[C@@H](C)CC)NC(=O)[C@H](Cc2c[nH]c4ccccc24)NC(=O)[C@H](CC(C)C)NC(=O)[C@H](CCCCN)NC3=O)NC(=O)[C@H](C)NC(=O)[C@H](CCCNC(=N)N)NC1=O", "note": "[compound 561]", "values": [
      {"measurement": "Nav1.4/Nav1.7", "result": 33}
    ]},
    {"smiles": "CCCC[C@@H]1NC(=O)[C@H](Cc2c[nH]c3ccccc23)NC(=O)[C@H](CCCCN)NC(=O)[C@H](CCC(N)=O)NC(=O)[C@@H](NC(=O)[C@H](Cc2ccc(O)cc2)NC(=O)[C@@H](N)CCc2ccccc2)CSSC[C@@H]2NC(=O)[C@@H]3CSSC[C@@H](C(=O)N[C@@H](CCCNC(=N)N)C(=O)N[C@@H](CCCCN)C(=O)N[C@H](C(=O)N[C@H](C(N)=O)[C@@H](C)CC)[C@@H](C)CC)NC(=O)[C@H](Cc4c[nH]c5ccccc45)NC(=O)[C@H](CC(C)C)NC(=O)[C@H](CCCCN)NC(=O)[C@H](CSSC[C@H](NC(=O)[C@H]([C@@H](C)O)NC(=O)[C@H](Cc4c[nH]c5ccccc45)NC1=O)C(=O)N[C@@H](CC(=O)O)C(=O)N[C@@H](CO)C(=O)N[C@@H](CCCCN)C(=O)N[C@@H](CCCNC(=N)N)C(=O)N[C@@H](C)C(=O)N3)NC(=O)[C@H](CCCNC(=N)N)NC(=O)[C@H](CC(C)C)NC(=O)CNC(=O)[C@H](CCC(=O)O)NC2=O", "note": "[compound 379]", "values": [
      {"measurement": "Nav1.4/Nav1.7", "result": 10},
      {"measurement": "Nav1.5/Nav1.7", "result": 916}
    ]},
    {"smiles": "C#CC[C@H](N)C(=O)N[C@@H](Cc1ccc(O)cc1)C(=O)N[C@H]1CSSC[C@@H]2NC(=O)[C@@H]3CSSC[C@@H](C(=O)N[C@@H](CCCNC(=N)N)C(=O)N[C@@H](CCCCN)C(=O)N[C@@H](CCC(=O)O)C(=O)N[C@H](C(N)=O)[C@@H](C)CC)NC(=O)[C@H](Cc4c[nH]c5ccccc45)NC(=O)[C@H](CC(C)C)NC(=O)[C@H](CCCCN)NC(=O)[C@H](CSSC[C@H](NC(=O)[C@H]([C@@H](C)O)NC(=O)[C@H](Cc4c[nH]c5ccccc45)NC(=O)[C@H](CCCC)NC(=O)[C@H](Cc4c[nH]c5ccc(Br)cc45)NC(=O)[C@H](CCCCN)NC(=O)[C@H](CCC(N)=O)NC1=O)C(=O)N[C@@H](CC(=O)O)C(=O)N[C@@H](CO)C(=O)N[C@@H](CCCCN)C(=O)N[C@@H](CCCNC(=N)N)C(=O)N[C@@H](C)C(=O)N3)NC(=O)[C@H](CCCNC(=N)N)NC(=O)[C@H](CC(C)C)NC(=O)CNC(=O)[C@H](CCC(=O)O)NC2=O", "note": "[compound 845]", "values": [
      {"measurement": "IC50", "result": 53.5, "unit": "nM"}
    ]}
  ]
}
